The text below walks through data of patent publication US12391733B2, “Stapled intracellular-targeting antimicrobial peptides to treat infection” (priority 2016, dated 2025).

One data set is described as follows: circular dichroism. As to conditions: 10 mM phosphate buffer; pH 7.4; ns °C; 100 uM. A general note: CD spectra are sensitive to the conformation of chiral molecules.
For data set [1], the system named is human red blood cells (RBCs). It counts as cell-based. The settings on record: red cells of human, 1 h, 50. The text has this:
One of the key obstacles that have long impeded the use of AMPs in systemic infections such as sepsis is their tendency to lyse human cells, such as red blood cells (RBCs). Thus, it is critical to minimize hemolytic activity as much as possible to achieve a therapeutic window. […] Of note, in those circumstances where hydrocarbon staples increase hemolytic activity due to increasing hydrophobicity, the alkene moiety can be modified, e.g., by dihydroxylation, to install hydrophilic residues and potentially mitigate hemolysis.
Hemolytic Activity Assay For the determination of hemolytic activity, the following protocol was applied: human blood samples were centrifuged to isolate red blood cells (RBCs), which were then washed and suspended in phosphate-buffered saline to yield a 1% (v/v) suspension. This suspension was then added to serial dilutions of peptide stocks in water in clear round-bottom polypropylene 96-well plates and the plates incubated for 1 hour at 37° C. After incubation, the plates were centrifuged and the supernatant isolated to determine the amount of hemoglobin released using a spectrophotometer (570 nm). The minimum hemolytic concentration (MHC) was determined by assessing the peptide concentration at which there was less than 1% hemoglobin release.

A further data set relates to E. coli. The class given is cell-based, Escherichia coli. The settings on record: Table 1; microbroth dilution, refined MHB, 20-24 hours at 37° C. The protocol:
Antimicrobial Activity Assay The following microbroth dilution protocol was adapted to determine the MIC of each peptide. First, Mueller-Hinton broth (MHB) was passed through an anion exchange column to remove polyanionic species and generate refined MHB. This refined broth was then used in the standard microbroth dilution protocol devised by Hancock et al. for 96 well plates. […] Briefly, bacterial cells were grown overnight in refined MHB at 37° C. and then diluted and allowed to grow again for several hours. Serial dilutions of peptide stocks in water (10 μl) were prepared using clear round-bottom polypropylene 96-well plates. Then 90 μl of bacteria in refined MHB was added to give a final inoculum of 5×10^5 CFU/ml. The plates were then covered with porous tape to reduce evaporation, and incubated for 20-24 hours at 37° C.
In general terms: Dilution methods test growth across graded concentrations, often in twofold steps.

Positions of bridges follow the written chain, without caps; N, C: chain ends. Non-standard residues stand in square brackets, D forms with d. Residues, ends and D or L forms follow the SMILES beside them. R8 = C=CCCCCCC[C@@](C)(N)C(=O)O; S5 = C=CCCC[C@](C)(N)C(=O)O

In turn, `CC(C)C[C@H](NC(=O)CNC(=O)[C@H](C)NC(=O)[C@H](CCCNC(=N)N)NC(=O)[C@H](CO)NC(=O)[C@H](CO)NC(=O)[C@H](CCCNC(=N)N)NC(=O)[C@@H](N)[C@@H](C)O)C(=O)N[C@@H](CCC(N)=O)C(=O)N[C@@H](Cc1c[nH]c2ccccc12)C(=O)N1CCC[C@H]1C(=O)N[C@H](C(=O)NCC(=O)N[C@@H](CCCNC(=N)N)C(=O)N[C@H](C(=O)N[C@@H](Cc1c[nH]cn1)C(=O)N[C@@H](CCCNC(=N)N)C(=O)N[C@@H](CC(C)C)C(=O)N[C@@H](CC(C)C)C(=O)N[C@@H](CCCNC(=N)N)C(=O)N[C@@H](CCCCN)C(N)=O)C(C)C)C(C)C` yielded a helicity in “circular dichroism” of 0%.

For the compound `CC(C)C[C@H](NC(=O)CNC(=O)[C@H](C)NC(=O)[C@H](CCCNC(=N)N)NC(=O)[C@H](CO)NC(=O)[C@H](CO)NC(=O)[C@H](CCCNC(=N)N)NC(=O)[C@@H](N)[C@@H](C)O)C(=O)N[C@@H](CCC(N)=O)C(=O)N[C@@H](Cc1c[nH]c2ccccc12)C(=O)N1CCC[C@H]1C(=O)N[C@H](C(=O)NCC(=O)N[C@@H](CCCNC(=N)N)C(=O)N[C@H](C(=O)N[C@@H](Cc1c[nH]cn1)C(=O)N[C@@]1(C)CCCC=CCCC[C@@](C)(C(N)=O)NC(=O)[C@H](CCCNC(=N)N)NC(=O)[C@H](CC(C)C)NC(=O)[C@H](CC(C)C)NC1=O)C(C)C)C(C)C` [BFStap(i + 4)1] (H-TRSSRAGLQWPVGRVH[S5]LLR[S5]-NH2; staple 17-21; N-terminus and C-terminus assumed), in data set [1], the “% Hemolysis at 50 μg/ml” value is on record as 2.2%. Further, in the data set with E. coli, the “Antimicrobial Activity NIC (μg/ml) E. coli” value (“Antimicrobial Activity NIC” for short) was 50.0 µg/mL.

Take `CC(C)C[C@H](NC(=O)CNC(=O)[C@H](C)NC(=O)[C@H](CCCNC(=N)N)NC(=O)[C@H](CO)NC(=O)[C@H](CO)NC(=O)[C@H](CCCNC(=N)N)NC(=O)[C@@H](N)[C@@H](C)O)C(=O)N[C@@H](CCC(N)=O)C(=O)N[C@@H](Cc1c[nH]c2ccccc12)C(=O)N1CCC[C@H]1C(=O)N[C@H](C(=O)NCC(=O)N[C@@H](CCCNC(=N)N)C(=O)N[C@H](C(=O)N[C@@]1(C)CCCC=CCCC[C@@](C)(C(=O)N[C@@H](CCCCN)C(N)=O)NC(=O)[C@H](CC(C)C)NC(=O)[C@H](CC(C)C)NC(=O)[C@H](CCCNC(=N)N)NC1=O)C(C)C)C(C)C` [BFStap(i + 4)2] (H-TRSSRAGLQWPVGRV[S5]RLL[S5]K-NH2; staple 16-20): the helicity in “circular dichroism” amounted to 3.2%. Moreover, the “% Hemolysis at 50 μg/ml” value in data set [1] is listed as 12.6%.

For the compound `CC(C)C[C@H](NC(=O)CNC(=O)[C@H](C)NC(=O)[C@H](CCCNC(=N)N)NC(=O)[C@H](CO)NC(=O)[C@H](CO)NC(=O)[C@H](CCCNC(=N)N)NC(=O)[C@@H](N)[C@@H](C)O)C(=O)N[C@@H](CCC(N)=O)C(=O)N[C@@H](Cc1c[nH]c2ccccc12)C(=O)N1CCC[C@H]1C(=O)N[C@H](C(=O)NCC(=O)N[C@@H](CCCNC(=N)N)C(=O)N[C@@]1(C)CCCC=CCCC[C@@](C)(C(=O)N[C@@H](CCCNC(=N)N)C(=O)N[C@@H](CCCCN)C(N)=O)NC(=O)[C@H](CC(C)C)NC(=O)[C@H](CCCNC(=N)N)NC(=O)[C@H](Cc2c[nH]cn2)NC1=O)C(C)C` [BFStap(i + 4)3] (H-TRSSRAGLQWPVGR[S5]HRL[S5]RK-NH2; staple 15-19; N-terminus and C-terminus assumed), the helicity in “circular dichroism” amounted to 4.3%. In data set [1], the “% Hemolysis at 50 μg/ml” value is on record as 2.9%. Also, the “Antimicrobial Activity NIC” value with E. coli is 25.0 µg/mL.

Regarding `CC(C)C[C@H](NC(=O)CNC(=O)[C@H](C)NC(=O)[C@H](CCCNC(=N)N)NC(=O)[C@H](CO)NC(=O)[C@H](CO)NC(=O)[C@H](CCCNC(=N)N)NC(=O)[C@@H](N)[C@@H](C)O)C(=O)N[C@@H](CCC(N)=O)C(=O)N[C@@H](Cc1c[nH]c2ccccc12)C(=O)N1CCC[C@H]1C(=O)N[C@H](C(=O)NCC(=O)N[C@@]1(C)CCCC=CCCC[C@@](C)(C(=O)N[C@@H](CC(C)C)C(=O)N[C@@H](CCCNC(=N)N)C(=O)N[C@@H](CCCCN)C(N)=O)NC(=O)[C@H](CCCNC(=N)N)NC(=O)[C@H](Cc2c[nH]cn2)NC(=O)[C@H](C(C)C)NC1=O)C(C)C` [BFStap(i + 4)4] (H-TRSSRAGLQWPVG[S5]VHR[S5]LRK-NH2; staple 14-18; N-terminus and C-terminus assumed), the helicity in “circular dichroism” is 6%. For the same compound, the “% Hemolysis at 50 μg/ml” value in data set [1] was 2.9%. In addition, the “Antimicrobial Activity NIC” value in the data set on E. coli is 29.2 µg/mL.

As for `CC(C)C[C@H](NC(=O)CNC(=O)[C@H](C)NC(=O)[C@H](CCCNC(=N)N)NC(=O)[C@H](CO)NC(=O)[C@H](CO)NC(=O)[C@H](CCCNC(=N)N)NC(=O)[C@@H](N)[C@@H](C)O)C(=O)N[C@@H](CCC(N)=O)C(=O)N[C@@H](Cc1c[nH]c2ccccc12)C(=O)N1CCC[C@H]1C(=O)N[C@@]1(C)CCCC=CCCC[C@@](C)(C(=O)N[C@@H](CCCNC(=N)N)C(=O)N[C@@H](CC(C)C)C(=O)N[C@@H](CC(C)C)C(=O)N[C@@H](CCCNC(=N)N)C(=O)N[C@@H](CCCCN)C(N)=O)NC(=O)[C@H](C(C)C)NC(=O)[C@H](CCCNC(=N)N)NC(=O)CNC1=O` [BFStap(i + 4)6] (H-TRSSRAGLQWP[S5]GRV[S5]RLLRK-NH2; staple 12-16), the “% Hemolysis at 50 μg/ml” value in data set [1] is listed as 10.0%.

On to `CC(C)C[C@H](NC(=O)CNC(=O)[C@H](C)NC(=O)[C@H](CCCNC(=N)N)NC(=O)[C@H](CO)NC(=O)[C@H](CO)NC(=O)[C@H](CCCNC(=N)N)NC(=O)[C@@H](N)[C@@H](C)O)C(=O)N[C@@H](CCC(N)=O)C(=O)N[C@@H](Cc1c[nH]c2ccccc12)C(=O)N1CCC[C@H]1C(=O)N[C@]1(C)CCCCCCC=CCCC[C@@](C)(C(=O)N[C@@H](CCCNC(=N)N)C(=O)N[C@@H](CCCCN)C(N)=O)NC(=O)[C@H](CC(C)C)NC(=O)[C@H](CCCNC(=N)N)NC(=O)[C@H](Cc2c[nH]cn2)NC(=O)[C@H](C(C)C)NC(=O)[C@H](CCCNC(=N)N)NC(=O)CNC1=O` [BFStap(i + 7)3] (H-TRSSRAGLQWP[R8]GRVHRL[S5]RK-NH2; staple 12-19; N-terminus and C-terminus assumed), for which the “% Hemolysis at 50 μg/ml” value in data set [1] came out at 6.1%. In addition, in the data set on E. coli, the “Antimicrobial Activity NIC” value was 29.2 µg/mL.

With `CC(C)C[C@H](NC(=O)[C@H](CC(C)C)NC(=O)[C@H](CCCNC(=N)N)NC(=O)[C@H](Cc1c[nH]cn1)NC(=O)[C@]1(C)CCCC=CCCCCCC[C@@](C)(NC(=O)CNC(=O)[C@H](C)NC(=O)[C@H](CCCNC(=N)N)NC(=O)[C@H](CO)NC(=O)[C@H](CO)NC(=O)[C@H](CCCNC(=N)N)NC(=O)[C@@H](N)[C@@H](C)O)C(=O)N[C@@H](CCC(N)=O)C(=O)N[C@@H](Cc2c[nH]c3ccccc23)C(=O)N2CCC[C@H]2C(=O)N[C@@H](C(C)C)C(=O)NCC(=O)N[C@@H](CCCNC(=N)N)C(=O)N1)C(=O)N[C@@H](CCCNC(=N)N)C(=O)N[C@@H](CCCCN)C(N)=O` [BFStap(i + 7)5] (H-TRSSRAG[R8]QWPVGR[S5]HRLLRK-NH2; staple 8-15; N-terminus and C-terminus assumed), the “% Hemolysis at 50 μg/ml” value in data set [1] is reported as 6.8%. For the same compound, in the data set with E. coli, the “Antimicrobial Activity NIC” value worked out at 52.1 µg/mL.

`CC(C)C[C@@H]1NC(=O)CNC(=O)[C@H](C)NC(=O)[C@](C)(NC(=O)[C@H](CO)NC(=O)[C@H](CO)NC(=O)[C@H](CCCNC(=N)N)NC(=O)[C@@H](N)[C@@H](C)O)CCCCCCC=CCCC[C@@](C)(C(=O)NCC(=O)N[C@@H](CCCNC(=N)N)C(=O)N[C@H](C(=O)N[C@@H](Cc2c[nH]cn2)C(=O)N[C@@H](CCCNC(=N)N)C(=O)N[C@@H](CC(C)C)C(=O)N[C@@H](CC(C)C)C(=O)N[C@@H](CCCNC(=N)N)C(=O)N[C@@H](CCCCN)C(N)=O)C(C)C)NC(=O)[C@@H]2CCCN2C(=O)[C@H](Cc2c[nH]c3ccccc23)NC(=O)[C@H](CCC(N)=O)NC1=O` [BFStap(i + 7)8] (H-TRSS[R8]AGLQWP[S5]GRVHRLLRK-NH2; staple 5-12) gave a helicity in “circular dichroism” of 0%. Also, in data set [1], the “% Hemolysis at 50 μg/ml” value came to 3.9%.

Turning to `CC(C)C[C@H](NC(=O)CNC(=O)[C@H](C)NC(=O)[C@H](CCCNC(=N)N)NC(=O)[C@H](CO)NC(=O)[C@H](CO)NC(=O)[C@H](CCCNC(=N)N)NC(=O)[C@@H](N)[C@@H](C)O)C(=O)N[C@@H](CCC(N)=O)C(=O)N[C@@H](Cc1c[nH]c2ccccc12)C(=O)N1CCC[C@H]1C(=O)N[C@H](C(=O)NCC(=O)N[C@@H](CCCNC(=N)N)C(=O)N[C@H](C(=O)N[C@@H](Cc1cnc[nH]1)C(=O)N[C@@H](CCCNC(=N)N)C(=O)N[C@@H](CC(C)C)C(=O)N[C@@H](CC(C)C)C(=O)N[C@@H](CCCNC(=N)N)C(=O)N[C@@H](CCCCN)C(=O)O)C(C)C)C(C)C` [Buforin II(F10W), reference compound], in data set [1], the “% Hemolysis at 50 μg/ml” value is given as 2.7%. In addition, the “Antimicrobial Activity NIC” value with E. coli was more than 800 µg/mL.
